Counter-ions that a name gives are not always drawn. Some results are limits rather than exact numbers.

Series [1] addresses T1, c-Met (cytoplasmic domain) (Homo sapiens, UniProt P08581).
T1 construct: Reactions were initiated with 30 ng/mL c-Met (cytoplasmic domain, Invitrogen Corporation #PV3143); purchased Invitrogen Corporation PV3143
As to the kind of experiment: c-Met Kinase Assay (ELISA/TRF, PLC-γ substrate). The format is biochemical. To be noted: 3 μM ATP (Km level); read-out: c-Met Kinase Inhibition (IC50). The method, boiled down:
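c-Met cytoplasmic domain (30 ng/mL) phosphorylates plate-coated GST–PLC-γ for 15 min at 37 °C. Phosphotyrosine detected with Eu-labeled PT66 antibody by time-resolved fluorescence. IC50 from variable-slope sigmoidal fit of % inhibition vs log concentration.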

Series [2] concerns the target baculovirus-expressed ALK (Homo sapiens, UniProt Q9UM73). In words: ALK Kinase Assay (ELISA/TRF, PLC-γ substrate). Further: 1 µM ATP (Km level). It counts as biochemical. To be noted: read-out: ALK Kinase Inhibition (IC50). The method, boiled down:
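GST-PLC-γ coat 10 μg/mL/TBS; 30 ng/ml ALK, 37° C, 15 min; Eu-PT66 anti-pTyr 1 h 37° C, enhancement, TRF. IC50: % inhib vs log10[cpd], variable-slope sigmoid.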

T1 sequence (P08581 956-1390 limits assumed): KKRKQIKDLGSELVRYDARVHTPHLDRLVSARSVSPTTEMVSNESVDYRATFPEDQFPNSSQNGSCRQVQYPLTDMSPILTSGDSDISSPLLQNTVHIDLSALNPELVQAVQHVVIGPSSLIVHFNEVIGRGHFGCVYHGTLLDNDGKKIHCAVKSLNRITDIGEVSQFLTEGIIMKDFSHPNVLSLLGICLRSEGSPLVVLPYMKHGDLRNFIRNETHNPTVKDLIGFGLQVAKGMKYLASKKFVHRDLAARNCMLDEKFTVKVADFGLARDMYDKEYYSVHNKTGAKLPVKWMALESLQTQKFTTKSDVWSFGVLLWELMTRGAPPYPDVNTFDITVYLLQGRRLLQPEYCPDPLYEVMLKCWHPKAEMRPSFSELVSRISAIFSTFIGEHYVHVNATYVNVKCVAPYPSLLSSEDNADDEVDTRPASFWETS
Chain of baculovirus-expressed ALK (Q9UM73 19-1620): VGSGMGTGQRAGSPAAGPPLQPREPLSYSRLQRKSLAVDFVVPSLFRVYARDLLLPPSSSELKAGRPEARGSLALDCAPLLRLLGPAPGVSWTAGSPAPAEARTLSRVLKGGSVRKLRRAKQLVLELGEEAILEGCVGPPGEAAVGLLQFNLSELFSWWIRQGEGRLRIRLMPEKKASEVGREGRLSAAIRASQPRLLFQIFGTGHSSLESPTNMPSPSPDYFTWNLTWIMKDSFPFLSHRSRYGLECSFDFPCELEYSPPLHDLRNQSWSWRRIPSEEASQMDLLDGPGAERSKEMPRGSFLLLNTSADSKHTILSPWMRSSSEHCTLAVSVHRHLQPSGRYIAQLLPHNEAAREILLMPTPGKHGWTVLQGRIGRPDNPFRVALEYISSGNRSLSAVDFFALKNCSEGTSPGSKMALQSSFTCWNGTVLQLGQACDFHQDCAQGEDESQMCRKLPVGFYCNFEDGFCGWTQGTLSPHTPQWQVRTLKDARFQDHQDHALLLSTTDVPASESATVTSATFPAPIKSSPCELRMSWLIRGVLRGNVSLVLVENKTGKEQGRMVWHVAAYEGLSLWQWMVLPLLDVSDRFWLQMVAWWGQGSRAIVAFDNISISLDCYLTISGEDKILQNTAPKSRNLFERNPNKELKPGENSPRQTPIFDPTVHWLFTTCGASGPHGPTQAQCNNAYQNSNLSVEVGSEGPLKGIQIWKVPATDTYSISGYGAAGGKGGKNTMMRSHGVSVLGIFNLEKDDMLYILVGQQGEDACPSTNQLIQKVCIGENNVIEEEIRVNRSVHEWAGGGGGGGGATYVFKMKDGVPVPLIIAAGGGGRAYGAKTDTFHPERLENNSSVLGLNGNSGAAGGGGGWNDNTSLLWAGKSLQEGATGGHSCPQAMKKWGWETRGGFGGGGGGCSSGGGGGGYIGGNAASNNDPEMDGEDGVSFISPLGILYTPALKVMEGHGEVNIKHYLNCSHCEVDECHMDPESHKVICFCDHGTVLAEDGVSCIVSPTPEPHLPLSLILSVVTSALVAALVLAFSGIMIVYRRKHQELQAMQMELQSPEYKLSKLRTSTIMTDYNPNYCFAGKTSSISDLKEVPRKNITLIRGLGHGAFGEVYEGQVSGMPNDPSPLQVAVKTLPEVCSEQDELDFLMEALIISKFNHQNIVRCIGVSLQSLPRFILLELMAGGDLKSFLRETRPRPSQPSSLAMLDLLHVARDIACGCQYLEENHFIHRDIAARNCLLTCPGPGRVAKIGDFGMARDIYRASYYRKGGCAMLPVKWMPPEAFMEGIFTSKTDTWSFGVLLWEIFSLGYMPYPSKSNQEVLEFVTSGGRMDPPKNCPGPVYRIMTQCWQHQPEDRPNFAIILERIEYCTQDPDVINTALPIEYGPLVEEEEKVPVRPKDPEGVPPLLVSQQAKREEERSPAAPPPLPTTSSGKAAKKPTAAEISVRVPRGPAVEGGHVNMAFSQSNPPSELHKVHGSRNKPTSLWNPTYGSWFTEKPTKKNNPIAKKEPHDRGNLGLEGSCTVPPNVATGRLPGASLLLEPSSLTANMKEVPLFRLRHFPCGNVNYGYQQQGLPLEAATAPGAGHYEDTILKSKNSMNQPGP

`Fc1cc(F)c(CN2CCNc3ncc(I)cc32)cc1F` [Example 82, 7-Iodo-1-(2,4,5-trifluorobenzyl)-1,2,3,4-tetrahydropyrido[2,3-b]pyrazine] registered a melting point of 154 to 156 °C. Also, the IC50 in series [1] is 10 to 100 µM. Moreover, the IC50 in series [2] was greater than 100 µM.

For the compound `O=C1CNc2ncc(I)cc2N1Cc1c(F)ccc(F)c1Cl` [Example 3, 1-(2-Chloro-3,6-difluorobenzyl)-7-iodo-3,4-dihydro-1H-pyrido[2,3-b]pyrazin-2-one], the melting point stood at 237 °C. The IC50 in series [1] is greater than 100 µM. Besides, the IC50 in series [2] was in the range of 10 to 100 µM.

The compound `Clc1ccc(Cl)c(CN2CCNc3ncc(I)cc32)c1` [Example 158, 1-(2,5-Dichlorobenzyl)-7-iodo-1,2,3,4-tetrahydropyrido[2,3-b]pyrazine] displayed a melting point of 169 °C. Moreover, the IC50 in series [1] is greater than 100 µM. Moreover, in series [2], the IC50 was in the range of 1 to 10 µM.

In turn, `O=C(c1ccccc1)N1CCNc2ncc(-c3cccnc3)cc21` [Example 43, Phenyl-(7-pyridin-3-yl-3,4-dihydro-2H-pyrido[2,3-b]pyrazin-1-yl)methanone] returned a melting point of 219 to 220 °C. In series [1], the IC50 was in the range of 10 to 100 µM. For the same compound, in series [2], the IC50 was greater than 100 µM.

As for `CN(C)CCCCCCNC(=O)c1ccc(-c2cnc3c(c2)N(Cc2c(Cl)cccc2Cl)C(=O)CN3)cc1` (as salt: trifluoroacetic acid salt) [Example 143, 4-[1-(2,6-Dichlorobenzyl)-2-oxo-1,2,3,4-tetrahydropyrido[2,3-b]pyrazin-7-yl]-N-(6-dimethylaminohexyl)benzamide, trifluoroacetic acid salt], the melting point was determined as 150 °C.

For `O=C1CN(Cc2c(F)ccc(F)c2Cl)c2cc(Br)cnc2N1` [Example 436, 7-Bromo-1-(2-chloro-3,6-difluorobenzyl)-1,4-dihydro-2H-pyrido[2,3-b]pyrazin-3-one], the melting point was 214 to 216 °C (dec.).

`O=C(NCCN1CCCC1)c1ccc(-c2cnc3c(c2)N(Cc2ccccc2)C(=O)CN3)cc1` (as salt: trifluoroacetic acid salt) [Example 12, 4-(1-Benzyl-2-oxo-1,2,3,4-tetrahydropyrido[2,3-b]pyrazin-7-yl)-N-(2-pyrrolidin-1-yl-ethyl)benzamide, trifluoroacetic acid salt] displayed a melting point of 107 °C.

For `CC(c1cc(F)c(F)cc1F)N1CCNc2ncc(-c3ccc(C(=O)N4CCC[C@H]4CN4CCCC4)cc3)cc21` (stereo partly drawn) [Example 148, S-{2-[(pyrrolidin-1-yl)methyl]pyrrolidin-1-yl}-(4-{1-[1-(2,4,5-trifluorophenyl)ethyl]-1,2,3,4-tetrahydropyrido[2,3-b]pyrazin-7-yl}phenyl)methanone, trifluoroacetic acid salt], the IC50 in series [1] is 10 to 100 µM; in series [2] it was 0.1 to 1 µM.

`O=C1CNc2ncc(-c3ccc(NC(=O)N4CCC[C@H]4CN4CCCC4)cc3)cc2N1Cc1cc(F)ccc1F` [Example 61, (S)-2-[(pyrrolidin-1-yl)methyl]pyrrolidine-1-carboxylic acid{4-[1-(2,5-difluorobenzyl)-2-oxo-1,2,3,4-tetrahydropyrido[2,3-b]pyrazin-7-yl]phenyl}-amide]: the IC50 in series [1] lay within 1 to 10 µM; in series [2], 0.1 to 1 µM.

Regarding `O=C1CNc2ncc(-c3cccnc3)cc2N1Cc1c(F)ccc(F)c1Cl` [Example 4, 1-(2-Chloro-3,6-difluorobenzyl)-7-pyridin-3-yl-3,4-dihydro-1H-pyrido[2,3-b]pyrazin-2-one, trifluoroacetic acid salt], the IC50 in series [1] lay within 10 to 100 µM; in series [2], 1 to 10 µM.

`O=C(c1cnc2c(c1)N(Cc1cc(Cl)ccc1Cl)CCN2)N1CCC(Cc2ccccc2)CC1` [Example 215, (4-Benzylpiperidin-1-yl)-[1-(2,5-dichlorobenzyl)-1,2,3,4-tetrahydropyrido[2,3-b]pyrazin-7-yl]methanone]: the IC50 in series [1] and in series [2] was 10 to 100 µM in each case.

Compound `CN(C)CCCCNC(=O)c1ccc(-c2cnc3c(c2)N(Cc2c(Cl)cccc2Cl)C(=O)CN3)cc1` (as salt: trifluoroacetic acid salt) [Example 144, 4-[1-(2,6-Dichlorobenzyl)-2-oxo-1,2,3,4-tetrahydropyrido[2,3-b]pyrazin-7-yl]-N-(4-dimethylaminobutyl)benzamide, trifluoroacetic acid salt] yielded a melting point of 147 °C.

Take `CN(C)CCNC(=O)c1cccc(-c2cnc3c(c2)N(Cc2ccccc2)C(=O)CN3)c1` [Example 19, 3-(1-Benzyl-2-oxo-1,2,3,4-tetrahydropyrido[2,3-b]pyrazin-7-yl)-N-(2-dimethylamino-ethyl)benzamide, trifluoroacetic acid salt]: the IC50 in series [1] lay in the range of 10 to 100 µM; in series [2], 1 to 10 µM.

Regarding `CC(c1cc(F)ccc1F)N1C(=O)CNc2ncc(-c3ccc(C(=O)N4CCC[C@H]4CN4CCCC4)cc3)cc21` (stereo partly drawn) [Example 151], the values for the IC50 in series [1] and in series [2] were 10 to 100 µM and 0.1 to 1 µM, respectively.

Consider `CN1CCN(c2ccc(-c3cnc4c(c3)N(Cc3cccc(F)c3C(F)(F)F)CCN4)cn2)CC1` [Example 181, 1-[3-Fluoro-2-(trifluoromethyl)benzyl]-7-[6-(4-methylpiperazin-1-yl)pyridin-3-yl]-1,2,3,4-tetrahydropyrido[2,3-b]pyrazine], for which the values for the IC50 in series [1] and in series [2] were 1 to 10 µM and 0.1 to 1 µM, respectively.

For the compound `O=C(NCC1CCCO1)c1cnc2c(c1)N(Cc1cc(Cl)ccc1Cl)CCN2` (stereo not drawn) [Example 254, 1-(2,5-Dichlorobenzyl)-1,2,3,4-tetrahydropyrido[2,3-b]pyrazine-7-carboxylic acid (tetrahydrofuran-2-yl-methyl)amide], the results for the IC50 in series [1] and in series [2] were greater than 100 µM and 1 to 10 µM, respectively.

For `CN1CCN(C(=O)c2ccc(-c3cnc4c(c3)N(Cc3cc(F)c(F)cc3F)CCN4)cc2)CC1` [Example 86, (4-Methylpiperazin-1-yl)-{4-[1-(2,4,5-trifluorobenzyl)-1,2,3,4-tetrahydropyrido[2,3-b]pyrazin-7-yl]phenyl}-methanone], the IC50 in series [1] and in series [2] was 1 to 10 µM throughout.

In the case of `O=C(c1cnc2c(c1)N(Cc1cc(Cl)ccc1Cl)CCN2)N1CCN(c2ncnc3ccsc23)CC1` [Example 217, [1-(2,5-Dichlorobenzyl)-1,2,3,4-tetrahydropyrido[2,3-b]pyrazin-7-yl]-(4-thieno[3,2-d]pyrimidin-4-yl-piperazin-1-yl)methanone], the values for the IC50 in series [1] and in series [2] were greater than 100 µM and 1 to 10 µM, respectively.

On to `O=C(c1cnc2c(c1)N(Cc1cc(Cl)ccc1Cl)CCN2)N1CCN(c2cccc(Cl)c2)CC1` [Example 222, [4-(3-Chlorophenyl)piperazin-1-yl]-[1-(2,5-dichlorobenzyl)-1,2,3,4-tetrahydropyrido[2,3-b]pyrazin-7-yl]methanone], for which the IC50 in series [1] and in series [2] was 10 to 100 µM in each case.

As for `O=C(c1ccc(-c2cnc3ncc(=O)n(Cc4ccccc4)c3c2)cc1)N1CCC(N2CCCC2)CC1` [Example 17, 1-Benzyl-7-[4-(4-(pyrrolidin-1-yl)piperidine-1-carbonyl)phenyl]-1H-pyrido[2,3-b]pyrazin-2-one, trifluoroacetic acid salt], the IC50 in series [1] and in series [2] was 10 to 100 µM each time.

For the compound `CC(c1cc(F)c(F)cc1F)N1CCNc2ncc(I)cc21` (stereo not drawn) [Example 147, 7-Iodo-1-[1-(2,4,5-trifluorophenyl)ethyl]-1,2,3,4-tetrahydropyrido[2,3-b]pyrazine], the IC50 in series [1] is greater than 100 µM; in series [2] it was 10 to 100 µM.

Consider `O=C(c1cnc2c(c1)N(Cc1cc(Cl)ccc1Cl)CCN2)N1CCN(c2ccccc2Cl)CC1` [Example 261, [4-(2-Chlorophenyl)piperazin-1-yl]-[1-(2,5-dichlorobenzyl)-1,2,3,4-tetrahydropyrido[2,3-b]pyrazin-7-yl]methanone], for which the IC50 in series [1] was greater than 100 µM; in series [2], 1 to 10 µM.

Consider `Clc1cccc(OC2CCNc3ncc(Br)cc32)c1` (stereo not drawn) [Example 271, 6-Bromo-4-(3-chlorophenoxy)-1,2,3,4-tetrahydro-[1,8]naphthyridine], for which the IC50 in series [1] is 10 to 100 µM; in series [2], greater than 100 µM.

For `O=C(c1cnc2c(c1)N(Cc1cc(Cl)ccc1Cl)CCN2)N1CCC(O)(c2ccc(Cl)cc2)CC1` [Example 208, [4-(4-Chlorophenyl)-4-hydroxypiperidin-1-yl]-[1-(2,5-dichlorobenzyl)-1,2,3,4-tetrahydropyrido[2,3-b]pyrazin-7-yl]methanone], the IC50 in series [1] is greater than 100 µM; in series [2], 1 to 10 µM.

For `CC(c1cc(F)c(F)cc1F)N1CCNc2ncc(-c3ccc(C(=O)N4CCN(C)CC4)cc3)cc21` (stereo not drawn) [Example 149, (4-Methylpiperazin-1-yl)-(4-{1-[1-(2,4,5-trifluorophenyl)ethyl]-1,2,3,4-tetrahydropyrido[2,3-b]pyrazin-7-yl}phenyl)methanone], the IC50 in series [1] and in series [2] was greater than 100 µM each time.

As for `COc1ccccc1N1CCN(C(=O)c2cnc3c(c2)N(Cc2cc(Cl)ccc2Cl)CCN3)CC1` [Example 210, [1-(2,5-Dichlorobenzyl)-1,2,3,4-tetrahydropyrido[2,3-b]pyrazin-7-yl]-[4-(2-methoxyphenyl)piperazin-1-yl]methanone], the IC50 in series [1] was in the range of 10 to 100 µM; in series [2], 1 to 10 µM.

For `CN1CCN(c2ccc(-c3cnc4c(c3)N(S(=O)(=O)c3ccccc3)CCN4)cn2)CC1` [Example 125, 1-Benzenesulfonyl-7-[6-(4-methylpiperazin-1-yl)pyridin-3-yl]-1,2,3,4-tetrahydropyrido[2,3-b]pyrazine], the results for the IC50 in series [1] and in series [2] were 10 to 100 µM and 0.1 to 1 µM, respectively.

Source of the values: patent US7601716B2, “Pyridopyrazines and derivatives thereof as ALK and c-Met inhibitors” (Cephalon, Inc., priority 2006, dated 2009).
